Laboratory results from the supplement of paper PMC10307832.

Experiments:
Test in all cases: relative viability (nuclei count vs DMSO), 5 days (fraction); higher = more cells survive
LCLC-103H = tested on: LCLC-103H
Summary of the method: (§1)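 Cells from lung cancer lines were seeded into 1536-well plates and, one day later, dosed by pin tool. Treatments were either a single drug or a fixed dose of an anchor drug with five library-drug doses (not always all listed) in √10 steps. After 5 days, nuclei were stained in a one-step fixation (final 0.05% Triton X-100, 1% formaldehyde, 1 ug/ml Hoechst) and counted on 4× images, and relative viability is the treated-to-vehicle nuclei ratio, as the median of duplicate plates.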

LXF-289 = tested on: LXF-289
Summary of the method: as §1

NCI-H1355 = tested on: NCI-H1355
Summary of the method: as §1

NCI-H1563 = tested on: NCI-H1563
Summary of the method: as §1

NCI-H1651 = tested on: NCI-H1651
Summary of the method: as §1

NCI-H1755 = tested on: NCI-H1755
Summary of the method: as §1

NCI-H1792 = tested on: NCI-H1792
Summary of the method: as §1

NCI-H1915 = tested on: NCI-H1915
Summary of the method: as §1

NCI-H2170 = tested on: NCI-H2170
Summary of the method: as §1

NCI-H2347 = tested on: NCI-H2347
Summary of the method: as §1

NCI-H3122 = tested on: NCI-H3122
Summary of the method: as §1

NCI-H322M = tested on: NCI-H322M
Summary of the method: as §1

NCI-H441 = tested on: NCI-H441
Summary of the method: as §1

NCI-H460 = tested on: NCI-H460
Summary of the method: as §1

NCI-H520 = tested on: NCI-H520
Summary of the method: as §1

NCI-H596 = tested on: NCI-H596
Summary of the method: as §1

NCI-H650 = tested on: NCI-H650
Summary of the method: as §1

NCI-H661 = tested on: NCI-H661
Summary of the method: as §1

NCI-H727 = tested on: NCI-H727
Summary of the method: as §1

PC-14 = tested on: PC-14
Summary of the method: as §1

RERF-LC-KJ = tested on: RERF-LC-KJ
Summary of the method: as §1

SK-MES-1 = tested on: SK-MES-1
Summary of the method: as §1

SW 900 = tested on: SW 900
Summary of the method: as §1

For C=C1C(=O)O[C@@H](CCCCCCCC)[C@@H]1C(=O)O [C-75] + N=C(N)NC(=N)NCCc1ccccc1 [Phenformin] (partner 250 µM), the relative viability (LCLC-103H; first compound 0.08 µM) was 0.325, the relative viability (LCLC-103H; first compound 0.253 µM) was 0.35 and the relative viability (LCLC-103H; first compound 0.8 µM) was 0.311. For the same molecule, the relative viability (LCLC-103H; first compound 2.53 µM) was 0.253, the relative viability (LCLC-103H; first compound 8 µM) was 0.389 and the relative viability (LXF-289; first compound 0.08 µM) was 0.504. For the same molecule, the relative viability (LXF-289; first compound 0.253 µM) was 0.543, the relative viability (LXF-289; first compound 0.8 µM) was 0.514 and the relative viability (LXF-289; first compound 2.53 µM) was 0.452. It also gave a relative viability (LXF-289; first compound 8 µM) of 0.507, a relative viability (NCI-H1355; first compound 0.08 µM) of 0.488 and a relative viability (NCI-H1355; first compound 0.253 µM) of 0.444. The relative viability (NCI-H1355; first compound 0.8 µM) was 0.452, the relative viability (NCI-H1355; first compound 2.53 µM) was 0.401 and the relative viability (NCI-H1355; first compound 8 µM) was 0.484. For the same molecule, the relative viability (NCI-H1563; first compound 0.08 µM) was 0.656, the relative viability (NCI-H1563; first compound 0.253 µM) was 0.64 and the relative viability (NCI-H1563; first compound 0.8 µM) was 0.655. It also gave a relative viability (NCI-H1563; first compound 2.53 µM) of 0.63, a relative viability (NCI-H1563; first compound 8 µM) of 0.691 and a relative viability (NCI-H1651; first compound 0.08 µM) of 0.35. The relative viability (NCI-H1651; first compound 0.253 µM) was 0.315, the relative viability (NCI-H1651; first compound 0.8 µM) was 0.354 and the relative viability (NCI-H1651; first compound 2.53 µM) was 0.306. It also gave a relative viability (NCI-H1651; first compound 8 µM) of 0.291, a relative viability (NCI-H1755; first compound 0.08 µM) of 0.633 and a relative viability (NCI-H1755; first compound 0.253 µM) of 0.587. It also gave a relative viability (NCI-H1755; first compound 0.8 µM) of 0.577, a relative viability (NCI-H1755; first compound 2.53 µM) of 0.529 and a relative viability (NCI-H1755; first compound 8 µM) of 0.607. For the same molecule, the relative viability (NCI-H1792; first compound 0.08 µM) was 0.236, the relative viability (NCI-H1792; first compound 0.253 µM) was 0.216 and the relative viability (NCI-H1792; first compound 2.53 µM) was 0.113. It also gave a relative viability (NCI-H1792; first compound 8 µM) of 0.206, a relative viability (NCI-H1915; first compound 0.08 µM) of 0.361 and a relative viability (NCI-H1915; first compound 0.253 µM) of 0.375. The relative viability (NCI-H1915; first compound 0.8 µM) was 0.368, the relative viability (NCI-H1915; first compound 2.53 µM) was 0.318 and the relative viability (NCI-H1915; first compound 8 µM) was 0.325. The relative viability (NCI-H2170; first compound 0.08 µM) was 0.469, the relative viability (NCI-H2170; first compound 0.253 µM) was 0.453 and the relative viability (NCI-H2170; first compound 0.8 µM) was 0.419. The relative viability (NCI-H2170; first compound 2.53 µM) was 0.404, the relative viability (NCI-H2170; first compound 8 µM) was 0.481 and the relative viability (NCI-H2347; first compound 0.08 µM) was 0.506. For the same molecule, the relative viability (NCI-H2347; first compound 0.253 µM) was 0.599, the relative viability (NCI-H2347; first compound 0.8 µM) was 0.401 and the relative viability (NCI-H2347; first compound 8 µM) was 0.379. The relative viability (NCI-H3122; first compound 0.08 µM) was 0.405, the relative viability (NCI-H3122; first compound 0.253 µM) was 0.406 and the relative viability (NCI-H3122; first compound 0.8 µM) was 0.384. For the same molecule, the relative viability (NCI-H3122; first compound 8 µM) was 0.408, the relative viability (NCI-H322M; first compound 0.08 µM) was 0.749 and the relative viability (NCI-H322M; first compound 0.253 µM) was 0.886. The relative viability (NCI-H322M; first compound 0.8 µM) was 0.781, the relative viability (NCI-H322M; first compound 2.53 µM) was 0.718 and the relative viability (NCI-H322M; first compound 8 µM) was 0.789. It also gave a relative viability (NCI-H441; first compound 0.08 µM) of 0.784, a relative viability (NCI-H441; first compound 0.253 µM) of 0.725 and a relative viability (NCI-H441; first compound 0.8 µM) of 0.784. The relative viability (NCI-H441; first compound 2.53 µM) was 0.672, the relative viability (NCI-H441; first compound 8 µM) was 0.787 and the relative viability (NCI-H460; first compound 0.08 µM) was 0.511. The relative viability (NCI-H460; first compound 0.253 µM) was 0.534, the relative viability (NCI-H460; first compound 0.8 µM) was 0.501 and the relative viability (NCI-H460; first compound 8 µM) was 0.516. The relative viability (NCI-H520; first compound 0.08 µM) was 0.539, the relative viability (NCI-H520; first compound 0.253 µM) was 0.747 and the relative viability (NCI-H520; first compound 0.8 µM) was 0.464. The relative viability (NCI-H520; first compound 2.53 µM) was 0.389, the relative viability (NCI-H520; first compound 8 µM) was 0.482 and the relative viability (NCI-H596; first compound 0.08 µM) was 0.891. The relative viability (NCI-H596; first compound 0.253 µM) was 0.766, the relative viability (NCI-H596; first compound 0.8 µM) was 0.846 and the relative viability (NCI-H596; first compound 2.53 µM) was 0.513. It also gave a relative viability (NCI-H596; first compound 8 µM) of 0.717, a relative viability (NCI-H650; first compound 0.08 µM) of 0.474 and a relative viability (NCI-H650; first compound 0.253 µM) of 0.409. It also gave a relative viability (NCI-H650; first compound 0.8 µM) of 0.371, a relative viability (NCI-H650; first compound 2.53 µM) of 0.4 and a relative viability (NCI-H650; first compound 8 µM) of 0.41. For the same molecule, the relative viability (NCI-H661; first compound 0.08 µM) was 0.313, the relative viability (NCI-H661; first compound 0.253 µM) was 0.271 and the relative viability (NCI-H661; first compound 0.8 µM) was 0.296. It also gave a relative viability (NCI-H661; first compound 2.53 µM) of 0.237, a relative viability (NCI-H661; first compound 8 µM) of 0.288 and a relative viability (NCI-H727; first compound 0.08 µM) of 0.62. It also gave a relative viability (NCI-H727; first compound 0.253 µM) of 0.879, a relative viability (NCI-H727; first compound 0.8 µM) of 0.537 and a relative viability (NCI-H727; first compound 8 µM) of 0.65. The relative viability (PC-14; first compound 0.08 µM) was 0.469, the relative viability (PC-14; first compound 0.253 µM) was 0.516 and the relative viability (PC-14; first compound 0.8 µM) was 0.479. For the same molecule, the relative viability (PC-14; first compound 2.53 µM) was 0.549, the relative viability (PC-14; first compound 8 µM) was 0.526 and the relative viability (RERF-LC-KJ; first compound 0.08 µM) was 0.427. For the same molecule, the relative viability (RERF-LC-KJ; first compound 0.253 µM) was 0.452, the relative viability (RERF-LC-KJ; first compound 0.8 µM) was 0.398 and the relative viability (RERF-LC-KJ; first compound 2.53 µM) was 0.469. For the same molecule, the relative viability (RERF-LC-KJ; first compound 8 µM) was 0.405, the relative viability (SK-MES-1; first compound 0.08 µM) was 0.652 and the relative viability (SK-MES-1; first compound 0.253 µM) was 0.697. It also gave a relative viability (SK-MES-1; first compound 0.8 µM) of 0.636, a relative viability (SK-MES-1; first compound 2.53 µM) of 0.658 and a relative viability (SK-MES-1; first compound 8 µM) of 0.702. For the same molecule, the relative viability (SW 900; first compound 0.08 µM) was 0.642, the relative viability (SW 900; first compound 0.253 µM) was 0.58 and the relative viability (SW 900; first compound 0.8 µM) was 0.513. It also gave a relative viability (SW 900; first compound 2.53 µM) of 0.535 and a relative viability (SW 900; first compound 8 µM) of 0.495.
